56 molecules from patent US9776991B2, “Thienomethylpiperazine derivatives as inhibitors of soluble epoxide hydrolase” (SANOFI, priority 2013, dated 2017) can be followed below.

One may read the pIC50 as −log10 of the IC50, conventionally taken in molar units.

pIC50: −log10 of the molar value. Where a name gives a salt, the structure may show the parent alone.

recombinant sEH (soluble epoxide hydrolase, EPHX2), sequence (P34913 whole entry): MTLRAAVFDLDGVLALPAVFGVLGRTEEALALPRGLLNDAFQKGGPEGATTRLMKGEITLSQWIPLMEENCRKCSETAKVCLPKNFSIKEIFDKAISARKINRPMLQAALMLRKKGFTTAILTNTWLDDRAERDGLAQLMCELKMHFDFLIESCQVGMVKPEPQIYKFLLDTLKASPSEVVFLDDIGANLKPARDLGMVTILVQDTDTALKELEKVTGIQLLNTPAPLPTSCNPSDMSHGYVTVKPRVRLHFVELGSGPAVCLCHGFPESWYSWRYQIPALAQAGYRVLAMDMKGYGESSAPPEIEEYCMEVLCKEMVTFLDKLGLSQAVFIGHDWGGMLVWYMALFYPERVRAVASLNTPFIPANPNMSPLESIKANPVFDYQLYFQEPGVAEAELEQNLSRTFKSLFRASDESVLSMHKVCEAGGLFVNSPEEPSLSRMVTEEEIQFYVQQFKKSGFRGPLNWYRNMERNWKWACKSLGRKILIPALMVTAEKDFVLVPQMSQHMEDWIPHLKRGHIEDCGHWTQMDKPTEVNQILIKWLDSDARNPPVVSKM

The first test has as its target recombinant sEH (soluble epoxide hydrolase, EPHX2) (Homo sapiens (Human), UniProt P34913). The test can be described thus: biochemical fluorometric sEH inhibition assay with Phome substrate. To be noted: recombinant sEH purified from Sf9 insect cells, 2 nM sEH, 5 μM Phome, 60 minutes at 30° C. As to the method:
Compounds were tested in a biochemical screening assay using recombinant sEH purified from Sf9 insect cells and an artificial substrate, (3-phenyl-oxiranyl)-acetic acid cyano-(6-methoxy-naphtalen-2-yl)-methyl ester, Phome. The biochemical assay was performed in analogy to a fluorometric described in the literature (P. D. Jones et al., Anal. Biochem. 2005, 343, 66-75). The assay principle bases on the sEH-catalyzed hydrolysis of an artificial α-cyano-ester substrate. O-deacetylation liberates a cyanohydrin intermediate that rapidly decomposes to the highly fluorescent 6-methoxy-2-naphtaldehyde. To discriminate sample autofluorescence, the assay was carried out as a kinetic measurement with two time points. The first measurement is performed immediately before addition of the substrate and the […] measurement is done after completion of the assay. The assay format is either in 96- or in 384-well format.
Details of the assay using a 96-well plate format are described below. 40 μl recombinant sEH enzyme and 5 μl test compound are pre-incubated for 15 minutes at 30° C. Following pre-incubation, the reaction is started by addition of 5 μl Phome. The assay mixture containing 2 nM final sEH concentration, test compound ranging in a concentration from 0.0001-10 μM and 5 μM Phome is incubated for 60 minutes at 30° C.
Fluorescence is measured with any suitable detector for instance a TECAN Safire or Tecan Ultra at […]. % inhibition of recombinant sEH activity is used for calculation of corresponding IC50 values as illustrated and described in the examples.
The NCBI gene bank reference sequence with the accession number NM_001979 for EPHX2/sEH was applied for recombinant protein production:
The following commercially available materials have been used: • Incubation reagent: 25 mM Hepes (Sigma-Aldrich, Cat. No H-3375), 0.01% bovine albumin (Sigma-Aldrich Cat. No PA9205) • Substrate: 3-Phenyl-oxiranyl)-acetic acid cyano-(6-methoxy-naphtalen-2-yl)-methyl ester, Phome (Biozol Cat. No 10003134) • Microtiter plates: 96-well plates (Greiner Cat. No 655180; Costar Cat. No 3915)
As to `O=C(NCc1ccccc1C(F)(F)F)c1ccc(CN2CCN(C(=O)C3Cc4ccccc43)CC2)s1` (centres unmarked) [Example 6], the negative logarithm of the IC50 (pIC50) was 9.28.

Turning to `COc1ccc(CNC(=O)c2ccc(CN3CCN(c4cc(C)ccn4)CC3)s2)c(OC(F)(F)F)c1` [Example 127], the pIC50 was 8.76.

On to `COCCOCC(=O)N1CCN(Cc2ncc(C(=O)NCc3ccc(Cl)cc3Cl)s2)CC1` [Example 188], for which the negative-log IC50 (pIC50) is 7.80.

Turning to `Cc1cc(=O)oc(C)c1C(=O)N1CCN(Cc2ccc(C(=O)NCCCn3nc(C(F)(F)F)cc3C)s2)CC1` [Example 11], the pIC50 was 8.53.

In the case of `O=C(NCc1ccc(Cl)cc1Cl)c1ccc(CN2CCN(C(=O)c3ccccc3F)CC2)s1` [Example 131], the negative logarithm of the IC50 (pIC50) was 8.67.

Turning to `COCCCC(=O)N1CCN(Cc2ccc(C(=O)NCc3ccccc3OC(F)(F)F)s2)CC1` [Example 140], the pIC50 was 8.74.

On to `O=C(NCc1ccc(Cl)cc1Cl)c1ccc(CN2CCN(C(=O)c3ccccn3)CC2)s1` [Example 77], for which the pIC50 was 8.60.

`O=C1CCC(C(=O)N2CCN(Cc3ccc(C(=O)NCc4ccccc4OC(F)(F)F)s3)CC2)N1` (centres unmarked) [Example 102]: the pIC50 is 8.63.

Consider `COc1ccc(CNC(=O)c2ccc(CN3CCN(c4ccccn4)CC3)s2)c(OC(F)(F)F)c1` [Example 124], for which the negative logarithm of the IC50 (pIC50) was 8.77.

As to `NC(CF)C(=O)N1CCN(Cc2ccc(C(=O)NCc3ccccc3OC(F)(F)F)s2)CC1` (centres unmarked) [Example 144], the negative-log IC50 (pIC50) was 8.75.

Take `O=C(NCc1ccccc1OC(F)(F)F)c1ccc(CN2CCN(c3ccc(O)nn3)CC2)s1` [Example 136]: the negative-log IC50 (pIC50) was 8.67.

For `COCC1(C(=O)N2CCN(Cc3ncc(C(=O)NCc4ccc(Cl)cc4Cl)s3)CC2)CC1` [Example 205], the negative-log IC50 (pIC50) is 8.24.

As for `O=C(NCc1ccccc1C(F)(F)F)c1ccc(CN2CCN(C(=O)C3(c4ccccc4)CC3)CC2)s1` [Example 75], the negative-log IC50 (pIC50) was 8.59.

As to `O=C(NCc1ccccc1OC(F)(F)F)c1ccc(CN2CCN(C(=O)C3COCCN3)CC2)s1` (centres unmarked) [Example 49], the negative logarithm of the IC50 (pIC50) was 8.57.

For the molecule `O=C(NCc1ccc(Cl)cc1Cl)c1cnc(CN2CCN(C(=O)CCO)CC2)s1` [Example 163], the pIC50 is 7.60.

`NC1(C(=O)N2CCN(Cc3ccc(C(=O)NCc4ccc(Cl)cc4Cl)s3)CC2)CCOCC1` [Example 133]: the negative-log IC50 (pIC50) is 8.67.

For the molecule `O=C(NCc1ccc(Cl)cc1Cl)c1ccc(CN2CCN(C(=O)c3ccc(F)cc3Cl)CC2)s1` [Example 43], the pIC50 is 8.56.

On to `O=C(NCc1ccccc1C(F)(F)F)c1ccc(CN2CCN(C(=O)[C@@H]3C[C@H]3c3ccccc3)CC2)s1` [Example 76], for which the pIC50 was 8.60.

`COC(C)(C)C(=O)N1CCN(Cc2ncc(C(=O)NCc3ccc(Cl)cc3Cl)s2)CC1` [Example 207]: the negative logarithm of the IC50 (pIC50) was 8.20.

In the case of `O=C(NCc1ccccc1C(F)(F)F)c1ccc(CN2CCN(C(=O)c3cnn4ccccc34)CC2)s1` [Example 151], the pIC50 is 8.71.

Turning to `NC(CF)C(=O)N1CCN(Cc2ccc(C(=O)NCc3ccc(Cl)cc3Cl)s2)CC1` (centres unmarked) [Example 48], the negative logarithm of the IC50 (pIC50) is 8.57.

Take `O=C(NCc1ccc(Cl)cc1Cl)c1cnc(CN2CCN(C(=O)CO)CC2)s1` [Example 181]: the pIC50 is 7.28.

Turning to `O=C(NCc1ccccc1OC(F)(F)F)c1ccc(CN2CCN(CCO)CC2)s1` [Example 125], the pIC50 was 8.77.

Take `Cc1cc(C(=O)NCCC(C)(C)C)sc1CN1CCN(C(=O)c2c(C)cc(=O)oc2C)CC1` [Example 28]: the pIC50 was 9.10.

`Cn1cccc1C(=O)N1CCN(Cc2ccc(C(=O)NCc3ccc(Cl)cc3Cl)s2)CC1` [Example 130]: the negative-log IC50 (pIC50) is 8.76.

Consider `O=C(NCc1ccc(Cl)cc1Cl)c1cnc(CN2CCN(C(=O)C3CCC(O)C3)CC2)s1` (centres unmarked) [Example 209], for which the pIC50 is 8.46.

Turning to `CSCCC(=O)N1CCN(Cc2ccc(C(=O)NCc3ccccc3OC(F)(F)F)s2)CC1` [Example 137], the negative-log IC50 (pIC50) was 8.75.

In the case of `Cc1ccc(C(=O)N2CCN(Cc3ccc(C(=O)NCc4ccccc4C(F)(F)F)s3)CC2)s1` [Example 152], the pIC50 was 8.68.

With `COc1ccc(CNC(=O)c2ccc(CN3CCN(C)C(=O)C3)s2)c(OC(F)(F)F)c1` [Example 134], the pIC50 is 8.67.

As to `Cc1cc(=O)oc(C)c1C(=O)N1CCN(Cc2ccc(C(=O)NCc3cccc(Cl)c3Cl)s2)CC1` [Example 91], the negative logarithm of the IC50 (pIC50) was 8.85.

For the molecule `Cc1cccnc1C(=O)N1CCN(Cc2ncc(C(=O)NCc3ccc(Cl)cc3Cl)s2)CC1` [Example 194], the pIC50 is 7.49.

For `Cn1ncc(N2CCN(Cc3ccc(C(=O)NCc4ccc(Cl)cc4Cl)s3)CC2)cc1=O` [Example 108], the pIC50 was 8.67.

`NC1(C(=O)N2CCN(Cc3ccc(C(=O)NCc4ccccc4OC(F)(F)F)s3)CC2)CC1` [Example 115, 5-[4-(1-Amino-cyclopropanecarbonyl)-piperazin-1-ylmethyl]-thiophene-2-carboxylic acid 2-trifluoromethoxy-benzylamide, trifluoroacetate]: the negative logarithm of the IC50 (pIC50) is 8.79.

With `COc1ncccc1C(=O)N1CCN(Cc2ccc(C(=O)NCc3ccc(Cl)cc3Cl)s2)CC1` [Example 7], the pIC50 is 9.28.

`N#CCC(=O)N1CCN(Cc2ncc(C(=O)NCc3ccc(Cl)cc3Cl)s2)CC1` [Example 195]: the negative logarithm of the IC50 (pIC50) is 7.13.

As for `O=C(NCc1ccccc1C(F)(F)F)c1ccc(CN2CCN(C(=O)c3nccc4ccccc34)CC2)s1` [Example 45], the negative logarithm of the IC50 (pIC50) is 8.57.

In the case of `CCOc1ccccc1C(=O)N1CCN(Cc2ccc(C(=O)NCc3ccccc3C(F)(F)F)s2)CC1` [Example 53], the negative logarithm of the IC50 (pIC50) is 8.99.

As to `CC(O)C(=O)N1CCN(Cc2ccc(C(=O)NCc3ccc(C#N)cc3Cl)s2)CC1` (centres unmarked) [Example 61], the pIC50 is 8.93.

Regarding `Cc1cc(=O)oc(C)c1C(=O)N1CCN(Cc2ccc(C(=O)NCc3ccccc3OC(F)F)s2)CC1` [Example 150], the negative-log IC50 (pIC50) was 8.73.

Consider `Cc1n[nH]c(C)c1C(=O)N1CCN(Cc2ncc(C(=O)NCc3ccc(Cl)cc3Cl)s2)CC1` [Example 206], for which the negative-log IC50 (pIC50) was 8.28.

As to `CC1(C)C(=O)NCCN1Cc1ccc(C(=O)NCc2ccccc2OC(F)(F)F)s1` [Example 62], the pIC50 was 8.94.

On to `O=C(NCc1ccc(Cl)cc1Cl)c1ccc(CN2CCN(C(=O)C3(c4ccccc4)CC3)CC2)s1` [Example 58], for which the pIC50 was 8.93.

On to `O=C(NCc1ccccc1OC(F)(F)F)c1ccc(CN2CCN(C(=O)C3COCCO3)CC2)s1` (centres unmarked) [Example 147], for which the negative-log IC50 (pIC50) is 8.71.

Turning to `COc1cccc(C(=O)N2CCN(Cc3ncc(C(=O)NCc4ccc(Cl)cc4Cl)s3)CC2)n1` [Example 202], the pIC50 is 7.88.

As for `CC(C)(O)C(=O)N1CCN(Cc2ccc(C(=O)NCc3ccccc3OC(F)(F)F)s2)CC1` [Example 123], the negative-log IC50 (pIC50) is 8.77.

For `COc1cc(CNC(=O)c2ccc(CN3CCN(C(=O)c4c(C)n[nH]c4C)CC3)s2)ccn1` [Example 139, 5-[4-(3,5-Dimethyl-1H-pyrazole-4-carbonyl)-piperazin-1-ylmethyl]-thiophene-2-carboxylic acid (2-methoxy-pyridin-4-ylmethyl)-amide trifluoroacetate], the negative logarithm of the IC50 (pIC50) is 8.55.

With `Cc1cc(=O)oc(C)c1C(=O)N1CCN(Cc2ccc(C(=O)NCCC(C)(C)C)s2)CC1` [Example 10], the pIC50 is 8.53.

Consider `O=C(NCc1ccc(Cl)cc1Cl)c1ccc(CN2CCN(C(=O)Cc3cccc(C(F)(F)F)c3)CC2)s1` [Example 100], for which the pIC50 was 8.64.

For the molecule `CC(O)C(=O)N1CCN(Cc2ccc(C(=O)NCc3ccccc3OC(F)(F)F)s2)CC1` (centres unmarked) [Example 155], the pIC50 is 8.70.

Take `COc1ccc(CNC(=O)c2ccc(CN3CCN(c4ccc(CO)cn4)CC3)s2)c(OC(F)(F)F)c1` [Example 146]: the negative-log IC50 (pIC50) is 8.71.

`Cc1cc(C(=O)NCc2cccc3c2OCCO3)sc1CN1CCN(C(=O)c2c(C)cc(=O)oc2C)CC1` [Example 29]: the pIC50 was 9.10.

For the molecule `CO[C@H](C)C(=O)N1CCN(Cc2ncc(C(=O)NCc3ccc(Cl)cc3Cl)s2)CC1` [Example 204], the negative logarithm of the IC50 (pIC50) was 7.73.

For `NC1(C(=O)N2CCN(Cc3ccc(C(=O)NCc4ccccc4OC(F)(F)F)s3)CC2)CCOCC1` [Example 145], the negative-log IC50 (pIC50) was 8.73.

Turning to `O=C(NCc1ccccc1OC(F)(F)F)c1ccc(CN2CCN(c3nncs3)CC2)s1` [Example 142], the pIC50 was 8.74.

As for `CC(O)C(=O)N1CCN(Cc2ccc(C(=O)NCc3ccc(Cl)cc3Cl)s2)CC1` (centres unmarked) [Example 20], the negative logarithm of the IC50 (pIC50) is 9.27.

The test is the same for the next values; noted with them: recombinant sEH purified from Sf9 insect cells, 2 nM sEH, 5 μM Phome, 60 minutes at 30° C.; trifluoroacetate.
Consider `CC(O)C(=O)N1CCN(Cc2ccc(C(=O)NCc3ccccc3OC(F)(F)F)s2)CC1` (centres unmarked) [Example 54, 5-[4-(2-Hydroxy-propionyl)-piperazin-1-ylmethyl]-thiophene-2-carboxylic acid 2-trifluoromethoxy-benzylamide, trifluoroacetate], for which the pIC50 is 9.01.
